One test deals with VEGF. Kind of test: VEGF levels in endothelial cells (ECV304), ELISA. The test is classed as cell-based, human. The conditions noted are these: 5 ug/ml, 4 hours. The protocol: Human endothelial cells (ECV304) were plated at the density of 8–10×10^5 cells per 2 ml in a six well plate. After an overnight incubation of cells at 37° C., cyclopentenone derivatives at a concentration of 5 ug/ml was added to the wells. The untreated wells served as controls. The plates were incubated for 4 hours at 37° C. The medium was collected from all the wells (control and treated) and spun down at 2000 r.p.m to remove the cellular material. The supernatant was collected and used for ELISA (quantikine human VEGF, R&D Systems). The assay employs the quantitative sandwich enzyme immuonoassay technique. A monoclonal antibody specific for VEGF has been pre-coated onto a microplate. Standards and samples were pipetted into the wells and VEGF present was bound by the immobilized antibody. After washing away the unbound substances, an enzyme-linked polyclonal antibody specific for VEGF was added to the wells. Following a wash to remove any unbound antibody-enzyme reagent, a substrate solution was added to the wells and color developed in proportion to the amount of VEGF bound in the initial step. The optical density of each well was determined within 30 minutes using a microplate reader set to 450 nm and reference wavelength at 540 nm. The VEGF levels were inhibited by the addition of cyclopentenone derivatives in vitro.
(ELISA stands for enzyme-linked immunosorbent assay.)

For the next test, the system named is Caspase-3. The test can be described thus: Caspase-3 induction in oral cancer cells (KB), colorimetric DEVD-pNA. The format is cell-based, human. To be noted: 5 ug/ml. On the procedure: Human squamous cell carcinoma (KB) were plated in a 25 cm^2 flask. When cultures achieved confluence, the cyclopentenone derivative of structure 20 was added to cells. The final concentration of derivative of the structure 20 in the flask was 5 ug/ml. The untreated wells served as controls. The cells were incubated with the drug for 2 different time points of 6 and 16 hours at 37° C. The cells were collected by centrifugation at 2000 r.p.m. for 10 minutes. The supernatant was gently removed and discarded while Lysis Buffer was added to the cell pellet (25 ul of lysis buffer per 1×10^4 cell). The cell lysate was incubated on ice for 10 minutes and centrifuged at 10,000-×g for 1 minute. The supernatant was transferred to a new tube and kept on ice. 50 ul of the cell lysate was added in a 96 well plate. To this was added 2× Reaction Buffer. Prior to using reaction buffer 10 ul of fresh DTT stock per 1 ml of 2× Reaction Buffer was added. To each well 5 ul of Caspase-3 colorimetric substrate (DEVD-pNA) was added. The plate was incubated for 1–2 hours at 37° C. and read at 405 nm.
The level of caspase enzymatic activity in the cell lysate is directly proportional to the absorbance at 405 nm.

The next test concerns Tubulin. The test can be described thus: in vitro tubulin polymerization (assembly) assay, absorbance at 340 nm. To be noted: tubulin 1 mg/ml, 37° C., pH 6.9; read-out: IC50 values for inhibition of Tubulin Polymerization. The test is classed as biochemical. On the procedure: The cyclopentenone derivatives were checked for their effects on tubulin polymerization in in vitro. Briefly, the tubulin assembly reaction was performed at 37° C. in buffer containing 80 mM PIPES, 1 mM EGTA, 1.0 mM GTP and 1 mM MgCl2 (pH 6.9) at a tubulin concentration of 1 mg/ml in the presence or absence of the cyclopentenone derivatives. The final concentration of the cyclopentenone derivatives in the reaction mixture varied from 1–5 uM. The derivatives were dissolved in 0.1% DMSO. The control experiments were carried out with 0.1% DMSO. The tubulin polymerization was followed by measurement of the absorbance of the solution at 340 nm every 30 seconds. […] Thus the cyclopentenone derivatives mediated their observed anticancer activities by tubulin depolymerization.

In a further test the test system is PTC tumor xenografts. Kind of test: In vivo anti-tumor activity on PTC (colon) xenografted mice. The conditions noted are these: PTC xenograft, intravenously 0.5 mg/100 μL once a day for 14 days. Further details: species or system Balb/c athymic mice. The protocol: PTC tumor xenografts were grown in Balb/c athymic mice by subcutaneous inoculation of a single cell suspension of PTC cells (15×10^6 cells/100 μL). The tumor bearing animals were divided into 2 groups of three animals each including one group comprising untreated control animals. Treatment with compound of formula no. 49 was initiated when the average tumor volumes, as measured using a vernier caliper, were […]. Compound of formula no. 49 was administered intravenously to the assigned group of tumor bearing animals at a dose of 0.5 mg/100 μL once a day and the treatment was continued for a period of 14 days.
The antitumor activity of the compound was monitored by measuring tumor volumes every fourth day using the formula W*W*L*0.4 (W=smaller diameter, L=larger diameter). The percentage inhibition of tumor growth was calculated using the formula (1-tumor volume-treated/tumor volume-control)*100. […] Compound of formula no. […] The percentage inhibition of tumor growth caused compound of formula no. 49 as compared to controls on day 23 was 45.8%.

`COc1ccc(C2=C(c3cc(OC)c(OC)c(OC)c3)C(=NO)CC2OC(C)=O)cc1` (stereo not shown) [Compound 20]: in the test with VEGF, the “Percent Reduction in VEGF” value is 2.0 ± 0.1%. The “Percent Induction of Caspase-3, 6 hours” value with Caspase-3 (6 hours) is reported as 13.6 ± 2.4%. Further, the “Percent Induction of Caspase-3, 16 hours” value in the test with Caspase-3 (16 hours) was 20.7 ± 3.1%.

As for `COc1ccc(C2=C(c3cc(OC)c(OC)c(OC)c3)C(=O)CC2O)cc1O` (stereo not shown) [Compound 39], the IC50 in the test on Tubulin is 1400 ± 600 nM.

As to `COc1ccc(C2=C(c3cc(OC)c(OC)c(OC)c3)C(=O)C(O)C2)cc1` (stereo not shown) [Compound 48], the IC50 with Tubulin came to 2100 ± 100 nM.

In the case of `COc1ccc(C2=C(c3cc(OC)c(OC)c(OC)c3)C(=NO)C(O)C2)cc1` (stereo not shown) [Compound 49], the “antitumor activity on PTC xenografts (in words)” value with PTC tumor xenografts was “significant antitumor activity”. The “Percent Reduction in VEGF” value in the test with VEGF amounted to 28.6 ± 1.9%. In the test with Tubulin, the IC50 came to 2300 ± 500 nM.

Turning to `COc1ccc(C2=C(c3cc(OC)c(OC)c(OC)c3)/C(=N\O)C(O)C2)cc1F` (stereo not shown) [Compound 66], in the test on Tubulin, the IC50 was found to be 2000 ± 600 nM.

For `COc1ccc(C2=C(c3cc(OC)c(OC)c(OC)c3)C(=O)C(O)C2)cc1O` (stereo not shown) [Compound 74], the IC50 with Tubulin is 1800 ± 500 nM.

What is called IC50 is the midpoint of a concentration-inhibition curve.
